Consider one compound from patent US10450322B2, “Low molecular weight derivatives of carboxamide halogenated porphyrins, namely chlorins and bacteriochlorins, and their applications thereof” (LUZITIN, S.A., priority 2015, dated 2019).

Series [1] can be described thus: Photobleaching (photodecomposition quantum yield). Format: physicochemical. Conditions: methanol:PBS (3:2).
The next series has as its system CT26 subcutaneous tumors. Briefly: In vivo antitumor PDT of CT26 subcutaneous tumors in BALB/c mice. Conditions: 15 min drug-to-light interval.
In series [2] the test system is CT26 (mouse colon adenocarcinoma) cell line. The series is described as follows: In vitro phototoxicity / dark toxicity towards CT26 cells. It is filed as cell-based. The protocol: Phototoxicity towards cancer cell lines was evaluated in vitro using A549 (human lung adenocarcinoma) and CT26 (mouse colon adenocarcinoma) cell lines. The cells were cultured in Dulbecco's modified Eagles's medium (DMEM) supplemented with 10% heat-inactivated fetal bovine serum and 1% penicillin. Cells were plated at a density of 20,000/well and 15,000/well respectively, in flat-bottom 96-well plates. On the following day, diluted solutions of the test compound were prepared (1 mM stock) and added to the cells for 30-min incubation. […] The wells were washed two times with PBS and irradiated after 30-min of incubation using the LED light described above. Light dose was 1 J/cm^2. The medium was replaced with fresh one after irradiation and the plates were incubated for 24 h, at which time the cellular viability was assessed by resazurin method using a microplate spectrophotometer (Synergy HT Biotek).
This example describes the evaluation of in vitro phototoxicity of a carboxamide bacteriochlorin with formula IX after light irradiation, and their potential for PDT of cancer. The formulation employed was the same as that of Example 4. […] The phototoxicity was measured according to the description in the Materials and Methods section. The phototoxicity of the test compound was assessed in terms of the percentage of survival of the cells for various concentrations of the test compound incubated for 30 min, followed by washings with PBS, addition of the culture medium and illumination with a light dose of 1 J/cm^2.

Series [3] can be described thus: n-Octanol:PBS partition ratio (shake-flask). It is filed as physicochemical. From the text:
a modification of the shake-flask method was employed to determine the equilibrium concentrations of the photosensitizer in n-octanol and in phosphate-buffered saline (PBS) mixed in equal volumes, using the typical fluorescence band of the same photosensitizer and calibration curves.
This example describes the evaluation of in vitro phototoxicity of a carboxamide bacteriochlorin with formula IX after light irradiation, and their potential for PDT application in the treatment of acne vulgaris. The phototoxicity was measured according to the description in the Materials and Methods section. The n-octanol:PBS partition ratio of IX is POW=2.9±0.5. An adequate formulation for this carboxamide bacteriochlorin is PEG400:DMSO (55:45). The phototoxicity of the test compound is proportional to the inhibition of P. acnes viability relative to the non-treated control, and is represented in FIG. 5 in the form of CFU reduction as a function of photosensitizer concentration for the light doses of 4 and 10 J/cm^2.

A short description of series [4]: Skin permeation: amount of photosensitizer in pig skin after topical formulation. It is filed as in vitro ADME. To be noted: for Concentration average: 6 experiments. How it is done: Skin permeation was evaluated using a topical formulation containing benzyl alcohol (23%), Kolliphor EL (17%), Transcutol (50%) and water (10%). The photosensitizer added to this formulation corresponded to 1.85% of the mass before its addition, and the gelling agent (Aerosil 200) added corresponded to 5% of the mass before its addition. The photosensitizer was first dissolved in Transcutol and exposed to 3 min of vortex and 5 min of ultrasounds. A mixture of benzyl alcohol and Kolliphor EL was then added. Immediately after, it was mixed in an IKA MIXER at 200 rpm for 5 min and water was added drop-by-drop for 10 min. Finally, the gelling agent, Aerosil 200, was mixed in and the microemulsion gel was obtained. Skin permeation studies were performed in pig skin using samples collected from 5 months old pigs. The hair was removed as well as the underlying fatty layer, before the permeation studies.
This example describes the permeation of carboxamide bacteriochlorin with formula IX in pig skin. The topical formulation and the animal model were described in the Materials and Methods section. The permeation was assessed both in terms of the amount of photosensitizer in the skin after designated times of contact between the topical formulation and the skin (incubation time) and in terms of the depth of the permeation in the skin.
The assessment of the amount of carboxamide bacteriochlorin with formula IX in the skin after various incubation times involved the following steps: (i) application of 0.30 ml of formulation in 1 cm^2 areas of minipig skin to make 6 independent measurements for the incubation times of 30, 60 and 120 minutes; (ii) cleaning of the surface of the skin at the end of the incubation times; (iii) cutting the skin in small pieces and maceration in 2 ml of dichloromethane with the aid of dispersing machine; (iv) extraction with 10 ml of dichloromethane in a falcon tube for six hours; (v) dilution by a factor of 5 with ethanol. The volume of 200 μl of the test solution was added in triplicate to 96 well plate and fluorescence intensity was detected using a Synergy HT microplate reader form Biotek (California, USA), with an excitation filter of 508/20 nm and emission filter of 760/35 nm, against a calibration curve. The signal of a blank obtained with the same cleaning method was subtracted from the signal of the sample and the concentration of the photosensitizer in each sample was obtained with the calibration curve. A summary of the results can be seen in Table 2.

A short description of series [5]: Singlet oxygen quantum yield (phosphorescence at 1270 nm). It is filed as physicochemical. To be noted: in ethanol. From the text: The experiments were run at room temperature using the Nd-YAG laser Spectra-Physics Quanta-Ray GRC-130. The solutions were excited at 355 nm and the phosphorescence of singlet oxygen collected at 1270 nm in a Hamamatsu R5509-42 photomultiplier, cooled to 193 K in a liquid nitrogen chamber, after selection of the wavelength with a monochromator with 600 lines grading. Phenalenone was used as a reference of singlet oxygen generator. A Newport filter model 10LWF-1000-B was used in the emission to avoid scattering and fluorescence.
This is indicative of negligible aggregation between the molecules, which exist mostly as monomers at these concentrations in the solvents studied. Table 1 presents the infrared molar absorption coefficient (εmax) and wavelength maximum in ethanol of a typical carboxamide halogenated bacteriochlorin derivative of Formula (I). The same table also presents triplet lifetimes (τT) in air and N2 saturated solutions, fluorescence lifetime (τS), the quantum yields of fluorescence (ΦF), triplet state formation (ΦT), and singlet oxygen generation (ΦΔ) in ethanol, and photodegradation quantum yield (Φpd) in methanol:PBS (3:2). Triplet decays were clearly mono-exponential and in air-saturated ethanol the triplet lifetimes were in the range of 200 to 300 nanoseconds. […]

Consider `CNC(=O)c1c2nc(c(-c3c(F)cccc3F)c3ccc(cc4nc(c(-c5c(F)cccc5F)c5ccc1[nH]5)CC4)[nH]3)CC2` [formula IX, 5-methylcarboxamide-10,20-bis-(2,6-difluorophenyl)bacteriochlorin], for which the “Φpd photodecomposition quantum yield” value in series [1] is on record as 1.5 10^−4. In the series on CT26 subcutaneous tumors (0.15 mg/kg i.v., 40 J/cm^2), the cure worked out at 100%, the “tolerability of PDT” value is “very well tolerated” and the tumor response result is “complete regression”. Besides, the “time post-PDT by which animals died of acute response to the treatment” value in the series on CT26 subcutaneous tumors (0.3 mg/kg i.v., 40 J/cm^2 at 749 nm) is recorded as “less than 72 h”. In series [2] (30 min incubation, irradiated with 1 J/cm^2), the IC50 – broadly, the point on the concentration scale where inhibition reaches its midpoint – worked out at 5.8 nM. In addition, in series [2] (CT26, 30 min incubation, 1 J/cm^2 (FIG. 6)), the “photosensitizer concentration at which nearly all cells are killed” value is on record as 50 nM. Besides, in series [2] (CT26, incubation in the dark for 30 min), the “concentration with no signs of toxicity in the dark” value was “up to 40 μM”. Further, in series [3], the “Log POW” value is given as 2.9 and the “n-octanol:PBS partition ratio POW” value was 2.9±0.5. In addition, the “flux of the photosensitizer to the skin Jmax” value in series [4] (attained in 1.5 hours, topical formulation) is listed as 4×10^−8 mol/(cm^2 h). Besides, in series [4] (incubation time 30 min), the “Mass in the skin” value was found to be 5.41 ± 1.33 μg/cm^2 and the Concentration average was determined as 0.909 µM. Moreover, in series [4] (incubation time 60 min), the “Mass in the skin” value was 19.9 ± 5.12 μg/cm^2 and the Concentration average turned out to be 3.34 µM. Besides, in series [4] (incubation time 120 min), the “Mass in the skin” value is 37.2 ± 7.45 μg/cm^2 and the Concentration average stood at 6.26 µM. Moreover, in series [5], the “ΦΔ singlet oxygen quantum yield” value is 0.38.
